Consider 1 compound from paper PMC5503023 (2016).

In test [1] the test system is bcl-2 G-quadruplex DNA (DNA, G4) CGGGCGCGGGAGGAAGGGGGCGGGAGC
Description: CD melting at 280 nm. The note with it: 100 mM KCl; 10 mM Tris-HCl, pH 7.4; 10 μM complex, 100 μM DNA.

Test [2] shares this test system. Description: UV-vis absorption titration. The following applies: 100 mM KCl; 10 mM Tris-HCl, pH 7.4; 20 μM complex; intrinsic binding constant.

Each structure is given as a SMILES string.

Broadly, the ΔTm is the shift of the melting midpoint relative to a reference. As for `Clc1ccc(-c2nc3c4cccnc4c4ncccc4c3[nH]2)cc1.[Cl-].[Ru+2].c1ccccc1`, the ΔTm in test [1] turned out to be 4.2 °C. Also, the K in test [2] was ~ 2.94 × 10^6 M^-1.
